From patent publication US20140272949A1, “Methods for Fully Segregating Recombinant Marine Cyanobacteria” (ALGENOL BIOFUELS INC., priority 2013, published 2014)

Tested on: PCC7002:pAB125 clones
Assay: Growth on low salt spectinomycin segregation plates
Type: cell-based, Synechococcus sp. strain PCC 7002
Protocol: 1 mL of the culture was washed once in BG-11 (2.500×g, 10 min spin) and streaked for single colonies on low salt media (BG-11+vB12) plates with various spectinomycin concentrations (sp15, 30, 60, 120, 240, 300, 360, and 500 μg/mL). These segregation plates were incubated at room temperature with low light overnight and then at 37° C. with continuous light or with a 12 h/12 h light/dark cycle for approximately 2 weeks.

What does the source list for `CN[C@@H]1[C@H](O)[C@H](NC)[C@H]2O[C@@]3(O)C(=O)C[C@@H](C)O[C@H]3O[C@@H]2[C@H]1O` [spectinomycin]?
growth on low salt plates (240 and 300 mg/L of spectinomycin, BG-11+vB12, about 2 weeks): single colonies formed; growth on low salt plates (higher spectinomycin concentrations (360, 500 μg/mL), BG-11+vB12): No colonies were found; growth on low salt plates (spectinomycin at 15 to 120 mg/L, BG-11+vB12, about 2 weeks): abundant growth
